Results reported in patent US20110033944A1, “METHOD FOR MEASURING HYPOCHLORITE ION” (SEKISUI MEDICAL CO., LTD., priority 2003, published 2011).

Key:
[1] = Reactivity of fluorescence probe to superoxide (KO2); type: physicochemical; conditions: 10 μM probe, KO2 100 μM, pH 7.4, 37° C.
Method: (§1) In the following example, a compound wherein R^1 is 2-carboxyphenyl group, and R^2 is 4-aminophenyl group in the general formula (I) (hereinafter referred to as “APF”) and a compound wherein R^3 is 2-carboxyphenyl group, and R^4 is 4-hydroxyphenyl group in the general formula (II) (hereinafter referred to as “HPF”) were used. Each of HPF and APF is dissolved in dimethylformamide (DMF) to obtain a 10 mM solution, and then added with a 100 mM sodium phosphate buffer (pH 7.4) to obtain a final concentration of 10 μM, unless otherwise specifically mentioned.
(§2) Excitation spectra and fluorescence spectra were analyzed with Hitachi F4500. The slit width was 2.5 nm in both of the excitation spectra and fluorescence spectra. The photomultiplier voltage was 950 V. Unless otherwise specifically mentioned, excitation wavelength was 490 nm, fluorescence wavelength was 515 nm, and the measurement was performed at 37° C.
(§3) Reactivities of APF and HPF to various reactive species containing oxygen were studied. […] The measurement was performed with excitation wavelength at 500 nm and with fluorescence wavelength at 520 nm for DCFH.
A 10 μM fluorescence probe solution was put in a fluorescence cell, added with KO2 (a final concentration of 100 μM), and was reacted for 30 minutes. Fluorescence intensities before the addition of KO2 and 30 minutes after the addition were measured.

[2] = Reactivity of fluorescence probe to hypochlorite ion (sodium hypochlorite); type: physicochemical; conditions: 10 μM probe, sodium hypochlorite 1.0 μM, pH 7.4, 37° C.
Method: as §1, §2, §3
A 10 μM fluorescence probe solution was put in a fluorescence cell, added with an aqueous sodium hypochlorite solution (a final concentration of 1.0 μM). Fluorescence intensities before and after the addition of an aqueous sodium hypochlorite solution were measured.

[3] = Reactivity of fluorescence probe to nitric oxide (NOC13); type: physicochemical; conditions: 10 μM probe, NOC13 100 μM, pH 7.4, 37° C.
Method: as §1, §2, §3
A 10 μM fluorescence probe solution was put in a fluorescence cell, added with 1-hydroxy-2-oxo-3-(3-aminopropyl)-3-ethyl-1-triazine (NOC13; a final concentration of 100 μM), and was reacted for 30 minutes. […]

[4] = Reactivity of fluorescence probe to hydrogen peroxide; type: physicochemical; conditions: 10 μM probe, H2O2 100 μM, pH 7.4, 37° C.
Method: as §1, §2, §3
A 10 μM fluorescence probe solution was put in a fluorescence cell, added with H2O2 (a final concentration of 100 μM), and was reacted for 30 minutes. Fluorescence intensities before the addition of H2O2 and 30 minutes after the addition were measured.

[5] = Reactivity of fluorescence probe to singlet oxygen (EP-1); type: physicochemical; conditions: 10 μM probe, EP-1 100 μM, pH 7.4, 37° C.
Method: as §1, §2, §3
A 10 μM fluorescence probe solution was put in a fluorescence cell, added with 3-(1,4-dihydro-1,4-epidioxy-1-naphthyl)propionic acid (EP-1; a final concentration of 100 μM), and was reacted for 30 minutes. […]

[6] = Reactivity of fluorescence probe to hydroxyl radical (H2O2 / ferrous perchlorate); type: physicochemical; conditions: 10 μM probe, H2O2 1 mM + ferrous perchlorate 100 μM, pH 7.4, room temperature
Method: as §1, §2, §3
A 10 μM fluorescence probe solution was added with an aqueous hydrogen peroxide solution (a final concentration of 1 mM), and further slowly added with an aqueous ferrous perchlorate (a final concentration of 100 μM). […]

neutrophils = assay: Fluorescence imaging of PMA-stimulated neutrophils; type: cell-based, porcine; conditions: 10 μM probe, PMA 2 ng/mL, excitation 488 nm, emission 505-550 nm
Method: According to the method described in Wakeyama, H., Takeshige, K., Takayanagi, R., and Minakami S. (1982) Biochem. J. 205, 593-601 and Kakinuma, K., Kaneda, M., Chiba, T., and Ohnishi, T. (1986) J. Biol. Chem. 261, 9426-9432, neutrophils were obtained from 1.8 liters of porcine blood. Erythrocytes in the buffy coat collected from the blood were hemolyzed with a large volume of an ice-cooled 0.2% aqueous sodium chloride solution for […] and then the preparation was promptly mixed with an equal volume of a 1.6% aqueous sodium chloride solution to restore the isotonic condition. Neutrophils were separated from platelets and mononuclear cells by the Conrey-Ficoll method. The neutrophils were suspended in Krebs Ringer phosphate buffer (114 mM NaCl, 4.6 mM KCl, 2.4 mM MgSO4, 1.0 mM, CaCl2, 15 mM NaH2PO4/Na2HPO4, pH7.4).
The separated neutrophils were seeded onto a glass-bottomed dish. Then the cells were loaded with HPF or APF (10 μM) after incubation for 30 minutes at room temperature. These neutrophils were stimulated with 4β-phorbol-12-myristate-13-acetate (PMA)(2 ng/mL). Fluorescence imaging was measured twice in each experiment: one is before and the other is 10 minutes after the stimulation with PMA. […]

Myeloperoxidase (human) = assay: Myeloperoxidase/H2O2 system, fluorescence measurement of generated hypochlorite ion; type: biochemical; conditions: 10 μM probe, myeloperoxidase 11.2 nM, 150 mM NaCl, 37° C.
Method: as §1, §2
(A) By using a 100 mM sodium phosphate buffer (pH 7.4) containing 150 mM sodium chloride, a 10 μM HPF solution and a 10 μM APF solution were prepared. Myeloperoxidase (human) were added to these solutions to obtain a final concentration of 11.2 nM. Each of the solution was put in each fluorescence cell, and a change in the fluorescence intensity with passage of time was measured. The temperature of the solutions were set at 37° C. […]

Compound	Reactivity to superoxide (fluorescence intensity before and 30 minutes after addition) [1]	Reactivity to hypochlorite ion (fluorescence intensity before and after addition) [2]	Reactivity to nitric oxide (fluorescence intensity before and 30 minutes after addition) [3]	Reactivity to hydrogen peroxide (fluorescence intensity before and 30 minutes after addition) [4]	Reactivity to singlet oxygen (fluorescence intensity before and 30 minutes after addition) [5]	Reactivity to hydroxyl radical (fluorescence intensity before and after addition) [6]	Fluorescence intensity of probe-loaded neutrophils before and 10 minutes after stimulation with PMA (neutrophils)	Change in fluorescence intensity with time on addition of hydrogen peroxide (FIG. 1(A)) (Myeloperoxidase (human); H2O2 1 μM)	Increase in fluorescence intensity before and after addition of hydrogen peroxide (FIG. 1(B)) (Myeloperoxidase (human); H2O2 0.1-1.0 μM, 5 minutes)
O=C(O)c1ccccc1C1c2cc(Cl)c(O)cc2Oc2cc(O)c(Cl)cc21 [DCFH, 2′,7′-dichlorodihydrofluorescein, reference compound]	67	86	150	190	26	7400			
Nc1ccc(Oc2ccc3c(-c4ccccc4C(=O)O)c4ccc(=O)cc-4oc3c2)cc1 [APF]	6		<1	<1	9		a significant increase was observed in fluorescence intensity	a significant increase in the fluorescence intensity was observed	fluorescence intensity was increased in a manner dependent on the concentration of the added hydrogen peroxide
